Measured values taken from BigSolDB 2.1.

CO[C@H]1O[C@@H]2O[C@@]3(C)CC[C@H]4[C@H](C)CC[C@@H]([C@H]1C)[C@@]24OO3
solubility (mole fraction) (in ethanol, 289.05 K): 0.0395 | solubility (mole fraction) (in ethanol, 290.85 K): 0.0426 | solubility (mole fraction) (in ethanol, 293.95 K): 0.0492 | solubility (mole fraction) (in ethanol, 296.95 K): 0.0592 | solubility (mole fraction) (in ethanol, 299.05 K): 0.0682 | solubility (mole fraction) (in ethanol, 301.05 K): 0.0764 | solubility (mole fraction) (in ethanol, 303.95 K): 0.0903 | solubility (mole fraction) (in ethanol, 306.95 K): 0.11 | solubility (mole fraction) (in ethanol, 308.45 K): 0.117 | solubility (mole fraction) (in ethanol, 310.45 K): 0.133 | solubility (mole fraction) (in ethanol, 313.2 K): 0.164 | solubility (mole fraction) (in ethanol, 316.25 K): 0.2 | solubility (mole fraction) (in ethanol, 318.95 K): 0.251 | solubility (mole fraction) (in ethanol, 322.65 K): 0.315 | solubility (mole fraction) (in ethanol, 326.05 K): 0.387 | solubility (mole fraction) (in ethanol, 328.65 K): 0.442 | solubility (mole fraction) (in methanol, 289.45 K): 0.0263 | solubility (mole fraction) (in methanol, 291.15 K): 0.0295 | solubility (mole fraction) (in methanol, 294.05 K): 0.0343 | solubility (mole fraction) (in methanol, 296.95 K): 0.0405 | solubility (mole fraction) (in methanol, 299.05 K): 0.0463 | solubility (mole fraction) (in methanol, 300.75 K): 0.0519 | solubility (mole fraction) (in methanol, 303.55 K): 0.0649 | solubility (mole fraction) (in methanol, 306.35 K): 0.0824 | solubility (mole fraction) (in methanol, 308.25 K): 0.0988 | solubility (mole fraction) (in methanol, 310.15 K): 0.116 | solubility (mole fraction) (in methanol, 312.95 K): 0.149 | solubility (mole fraction) (in methanol, 315.65 K): 0.187 | solubility (mole fraction) (in methanol, 317.35 K): 0.222 | solubility (mole fraction) (in methanol, 319.45 K): 0.297 | solubility (mole fraction) (in methanol, 322.05 K): 0.355
